Source: ChEMBL document CHEMBL1817576, “Specific inhibitions of annonaceous acetogenins on class II 3-hydroxy-3-methylglutaryl coenzyme A reductase from Streptococcus pneumoniae” (Bioorg Med Chem, 2011)
Each block holds one molecule with its values, some of them ahead of it.

How the values were obtained:
Haloferax volcanii [1] = assay: Activity of Haloferax volcanii HMGR class I expressed in Escherichia coli BL21(DE3) using HMG-CoA substrate after 1 min by microplate reader
Streptococcus pneumoniae [2] = assay: Activity of Streptococcus pneumoniae recombinant HMGR class II expressed in Escherichia coli BL21(DE3) using HMG-CoA substrate after 1 min by microplate reader
Staphylococcus aureus [3] = assay: Activity of Staphylococcus aureus HMGR class II expressed in Escherichia coli BL21(DE3) using HMG-CoA substrate after 1 min by microplate reader
Listeria monocytogenes [4] = assay: Activity of Listeria monocytogenes HMGR class II expressed in Escherichia coli BL21(DE3) using HMG-CoA substrate after 1 min by microplate reader
Mesocricetus auratus [5] = species: Mesocricetus auratus; assay: Activity of syrian hamsters HMGR class I expressed in Escherichia coli BL21(DE3) using HMG-CoA substrate after 1 min by microplate reader
[6] = Inhibition of Staphylococcus aureus recombinant HMGR class II expressed in Escherichia coli using HMG-CoA as substrate
[7] = Inhibition of Pseudomonas mevalonii recombinant HMGR class II expressed in Escherichia coli using HMG-CoA as substrate; set-up: species or system Pseudomonas sp. 'mevalonii'
[8] = Inhibition of Archaeoglobus fulgidus HMGCR 1 recombinant HMGR class II expressed in Escherichia coli using HMG-CoA as substrate
[9] = Inhibition of Streptococcus pneumoniae recombinant HMGR class II expressed in Escherichia coli using HMG-CoA as substrate
Streptococcus pneumoniae [10] = assay: Ratio Ki for lovastatin to compound for recombinant Streptococcus pneumoniae HMGR class II
[11] = Inhibition of Listeria monocytogenes recombinant HMGR class II expressed in Escherichia coli using HMG-CoA as substrate
Streptococcus pneumoniae [12] = assay: Activity of Streptococcus pneumoniae recombinant HMGR class II expressed in Escherichia coli BL21(DE3) using NADPH as substrate after 5 min by microplate reader
Haloferax volcanii [13] = assay: Activity of Haloferax volcanii HMGR class I expressed in Escherichia coli BL21(DE3) using NADPH as substrate after 5 min by microplate reader
Listeria monocytogenes [14] = assay: Ratio of Kcat to Km for Listeria monocytogenes HMGR class II using NADPH substrate
Mesocricetus auratus [15] = species: Mesocricetus auratus; assay: Activity of syrian hamsters HMGR class I expressed in Escherichia coli BL21(DE3) using NADPH as substrate after 5 min by microplate reader
Streptococcus pneumoniae [16] = assay: Ratio of Kcat to Km for Streptococcus pneumoniae HMGR class II using NADPH substrate
Listeria monocytogenes [17] = assay: Activity of Listeria monocytogenes HMGR class II expressed in Escherichia coli BL21(DE3) using NADPH as substrate after 5 min by microplate reader
Staphylococcus aureus [18] = assay: Activity of Staphylococcus aureus HMGR class II expressed in Escherichia coli BL21(DE3) using NADPH as substrate after 5 min by microplate reader

Km (Haloferax volcanii [1]): 60 µM
Km (Streptococcus pneumoniae [2]): 75.9 µM
Km (Staphylococcus aureus [3]): 40 µM
Km (Listeria monocytogenes [4]): 19.8 µM
Km (Mesocricetus auratus [5]): 20 µM
Compound: CC(C)(CO[P@@](=O)(O)O[P@@](=O)(O)OC[C@H]1O[C@@H](n2cnc3c(N)ncnc32)[C@H](O)[C@@H]1OP(=O)(O)O)[C@@H](O)C(=O)NCCC(=O)NCCSC(=O)C[C@@](C)(O)CC(=O)O

Ratio Ki (Streptococcus pneumoniae [10]): 20
Compound: CC[C@H](C)C(=O)O[C@H]1C[C@@H](C)C=C2C=C[C@H](C)[C@H](CC[C@@H]3C[C@@H](O)CC(=O)O3)[C@H]21 [LOVASTATIN]
Ki [6]: 320 µM
Ki [7]: 180 µM
Ki [8]: 530 µM
Ki [9]: 116 µM
Ki [11]: 130 µM

Compound: CCCCCC[C@H](O)CCC[C@H](O)[C@H]1CC[C@H]([C@H](O)CC[C@H](O)[C@@H]2CC[C@@H](CCCCCCCCCC3=C[C@H](C)OC3=O)O2)O1 [SQUAMOSTATIN A]
Ki [9]: 6.45 µM

Compound: CCCCCCCCCC[C@H](O)[C@H]1CC[C@H]([C@H](O)CC[C@H](O)[C@@H]2CC[C@@H](CCCCCCC[C@@H](O)CC3=C[C@H](C)OC3=O)O2)O1 [BULLATALICIN]
Ki [9]: 17.7 µM

Compound: CCCCCCCCCCC(O)C1CCC(C2CCC(C(O)CCCCCCCC[C@H](O)CC3=C[C@@H](C)OC3=O)O2)O1 (some centres undefined) [ASIMICIN]
Ki [9]: 12.2 µM

Km (Streptococcus pneumoniae [12]): 38.9 µM
kcat (Streptococcus pneumoniae [12]): 11.9 s⁻¹
Km (Haloferax volcanii [13]): 66 µM
kcat/Km (Listeria monocytogenes [14]): 186000 M⁻¹ s⁻¹
Km (Mesocricetus auratus [15]): 80 µM
kcat/Km (Streptococcus pneumoniae [16]): 322000 M⁻¹ s⁻¹
Km (Listeria monocytogenes [17]): 12.9 µM
kcat (Listeria monocytogenes [17]): 22.6 s⁻¹
Km (Staphylococcus aureus [18]): 70 µM
Compound: NC(=O)c1ccc[n+]([C@@H]2O[C@H](COP(=O)([O-])OP(=O)(O)OC[C@H]3O[C@@H](n4cnc5c(N)ncnc54)[C@H](OP(=O)(O)O)[C@@H]3O)[C@@H](O)[C@H]2O)c1

Compound: CCCCC[C@H](O)CCCC[C@H](O)[C@H]1CC[C@H]([C@H]2CC[C@H]([C@H](O)CCCCCCCCCCCCC3=C[C@H](C)OC3=O)O2)O1 [MOTRILIN]
Ki [9]: 20.5 µM
